{"source": "ChEMBL document CHEMBL3877327", "about": "“Activation of anti-oxidant Nrf2 signaling by substituted trans stilbenes” (Bioorg Med Chem, 2017)"}
{"target": "T1, Nuclear factor erythroid 2-related factor 2 (Homo sapiens) (UniProt Q16236)", "T1 sequence (whole entry)": "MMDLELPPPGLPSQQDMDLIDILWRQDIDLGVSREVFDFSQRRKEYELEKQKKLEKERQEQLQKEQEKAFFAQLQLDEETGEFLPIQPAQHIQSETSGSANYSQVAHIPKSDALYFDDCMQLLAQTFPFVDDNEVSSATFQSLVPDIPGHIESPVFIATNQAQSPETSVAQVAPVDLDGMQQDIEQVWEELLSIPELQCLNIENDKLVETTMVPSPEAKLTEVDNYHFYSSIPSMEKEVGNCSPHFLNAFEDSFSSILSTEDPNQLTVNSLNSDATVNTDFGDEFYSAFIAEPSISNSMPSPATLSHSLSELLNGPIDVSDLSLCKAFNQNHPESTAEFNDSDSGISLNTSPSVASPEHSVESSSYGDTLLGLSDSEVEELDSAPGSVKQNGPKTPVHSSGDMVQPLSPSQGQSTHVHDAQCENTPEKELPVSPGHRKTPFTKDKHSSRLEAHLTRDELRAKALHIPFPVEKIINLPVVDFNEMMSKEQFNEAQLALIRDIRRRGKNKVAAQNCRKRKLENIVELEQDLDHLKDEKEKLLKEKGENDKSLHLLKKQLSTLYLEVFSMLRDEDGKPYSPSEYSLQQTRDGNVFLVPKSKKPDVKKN", "test": "Activation of Nrf2 (unknown origin) expressed in human HepG2 cells at 15 uM after 5 hrs by ARE-driven luciferase reporter gene assay relative to control", "format": "cell-based"}
{"smiles": "Fc1ccc(/C=C/c2ccc(F)c(F)c2)cc1", "fold change (FC)": 7}
{"smiles": "COc1cccc(/C=C/c2cc(OC)ccc2OC)c1", "fold change (FC)": 15.7}
{"smiles": "Fc1ccc(/C=C/c2ccccc2F)cc1F", "fold change (FC)": 11.5}
{"smiles": "COc1ccc(/C=C/c2cccc(O)c2)cc1", "fold change (FC)": 28.1}
{"smiles": "COc1ccc(/C=C/c2ccc(F)c(F)c2)cc1", "fold change (FC)": 4.6}
{"smiles": "Fc1cccc(/C=C/c2ccccc2F)c1", "fold change (FC)": 8.5}
{"target": "T1, Nuclear factor erythroid 2-related factor 2 (Homo sapiens)", "test": "Activation of Nrf2 (unknown origin) expressed in human HepG2 cells after 5 hrs by ARE-driven luciferase reporter gene assay relative to control", "format": "cell-based"}
{"smiles": "COc1ccc(/C=C/c2cccc(F)c2)cc1OC", "fold change (FC)": 5.9}
{"smiles": "Fc1ccc(/C=C/c2cc(F)ccc2F)cc1", "fold change (FC)": 11.2}
{"smiles": "Fc1ccc(/C=C/c2ccccc2F)cc1", "fold change (FC)": 12.7}
{"smiles": "Fc1cccc(/C=C/c2ccc(F)c(F)c2)c1", "fold change (FC)": 12.2}
{"smiles": "COc1cccc(/C=C/c2ccccc2OC)c1", "fold change (FC)": 29.2}
{"smiles": "COc1cccc(/C=C/c2ccccc2)c1OC", "fold change (FC)": 25.4}
{"smiles": "Cc1ccc(/C=C/c2ccccc2F)cc1", "fold change (FC)": 10.1}
{"smiles": "COc1cccc(/C=C/c2ccc(C)cc2)c1OC", "fold change (FC)": 16.1}
{"smiles": "Oc1ccc(/C=C/c2cc(O)cc(O)c2)cc1", "fold change (FC)": 3.2}
{"smiles": "COc1ccc(OC)c(/C=C/c2ccc(F)cc2)c1", "fold change (FC)": 10.7}
{"smiles": "COc1ccc(/C=C/c2ccc(O)c(OC)c2)cc1", "fold change (FC)": 27.7}
{"smiles": "COc1ccc(/C=C/c2ccccc2Cl)cc1", "fold change (FC)": 17.8}
{"smiles": "COc1ccc(/C=C/c2ccc(OC)cc2OC)cc1", "fold change (FC)": 15.6}
{"smiles": "Cc1ccc(/C=C/c2cccc(C(F)(F)F)c2)cc1", "fold change (FC)": 19.2}
{"smiles": "COc1ccc(/C=C/c2cccc(F)c2)cc1", "fold change (FC)": 3.6}
{"smiles": "COc1cccc(/C=C/c2cccc(F)c2)c1OC", "fold change (FC)": 19.4}
{"smiles": "Fc1ccccc1/C=C/c1ccccc1", "fold change (FC)": 10.7}
{"smiles": "Fc1ccc(/C=C/c2ccccc2)cc1", "fold change (FC)": 4.8}
{"smiles": "COc1ccccc1/C=C/c1ccccc1", "fold change (FC)": 23.1}
{"smiles": "COc1ccccc1/C=C/c1ccccc1F", "fold change (FC)": 18.4}
{"smiles": "C[S+]([O-])CCCCN=C=S", "note": "(stereo not drawn)", "fold change (FC)": 12.4}
{"smiles": "COc1ccc(/C=C/c2cc(F)ccc2F)cc1", "fold change (FC)": 17}
{"smiles": "COc1cccc(/C=C/c2cccc(F)c2)c1", "fold change (FC)": 15.1}
{"smiles": "Cc1ccc(/C=C/c2ccc(F)cc2F)cc1", "fold change (FC)": 13.5}
{"smiles": "COc1ccc(OC)c(/C=C/c2ccc(OC)cc2OC)c1", "fold change (FC)": 12.9}
{"smiles": "Fc1ccccc1/C=C/c1c(F)cccc1F", "fold change (FC)": 21.2}
{"smiles": "Cc1ccc(/C=C/c2cccc(F)c2)cc1", "fold change (FC)": 4.7}
{"smiles": "Cc1ccc(/C=C/c2cccc([N+](=O)[O-])c2)cc1", "fold change (FC)": 11.9}
{"smiles": "Fc1ccccc1/C=C/c1ccccc1F", "fold change (FC)": 13.9}
{"smiles": "COc1cccc(/C=C/c2ccccc2F)c1", "fold change (FC)": 14.4}
{"smiles": "Cc1ccc(/C=C/c2ccc(F)cc2)cc1", "fold change (FC)": 1.1}
{"smiles": "O=[N+]([O-])c1cccc(/C=C/c2ccccc2)c1", "fold change (FC)": 18.6}
{"smiles": "Fc1cccc(/C=C/c2cccc(F)c2)c1", "fold change (FC)": 7}
{"smiles": "Fc1cccc(/C=C/c2ccc(F)cc2F)c1", "fold change (FC)": 8.2}
{"smiles": "Fc1ccc(/C=C/c2ccc(F)cc2F)cc1", "fold change (FC)": 16.8}
{"smiles": "Fc1cccc(/C=C/c2cc(F)ccc2F)c1", "fold change (FC)": 10.7}
{"smiles": "COc1ccc(/C=C/c2ccccc2F)cc1", "fold change (FC)": 14.9}
{"smiles": "Cc1ccc(/C=C/c2ccc(F)c(F)c2)cc1", "fold change (FC)": 10.2}
{"smiles": "COc1cccc(/C=C/c2ccc(F)cc2)c1", "fold change (FC)": 4.4}
{"smiles": "Fc1ccc(F)c(/C=C/c2ccccc2F)c1", "fold change (FC)": 22.3}
{"smiles": "Fc1cccc(F)c1/C=C/c1ccccc1", "fold change (FC)": 11.4}
{"smiles": "COc1cccc(/C=C/c2ccc(F)cc2)c1OC", "fold change (FC)": 16.9}
{"smiles": "Fc1ccc(/C=C/c2ccccc2F)c(F)c1", "fold change (FC)": 5}
{"smiles": "Fc1cccc(/C=C/c2ccccc2)c1", "fold change (FC)": 4.9}
{"smiles": "COc1ccc(/C=C/c2ccc(F)cc2)cc1OC", "fold change (FC)": 1.6}
{"smiles": "Fc1ccc(/C=C/c2cccc(F)c2)cc1", "fold change (FC)": 4.5}
{"smiles": "COc1ccc(/C=C/c2ccc(F)cc2)cc1", "fold change (FC)": 1.7}
{"smiles": "COc1ccc(/C=C/c2cccc([N+](=O)[O-])c2)cc1", "fold change (FC)": 69}
{"smiles": "Fc1ccccc1/C=C/c1ccc(Cl)cc1", "fold change (FC)": 5.3}
{"smiles": "COc1cccc(/C=C/c2ccc(C(C)C)cc2)c1OC", "fold change (FC)": 33.9}
{"smiles": "Oc1ccc(/C=C/c2ccccc2F)cc1", "fold change (FC)": 13.4}
{"smiles": "COc1cccc(/C=C/c2ccc(C(F)(F)F)cc2)c1OC", "fold change (FC)": 65.5}
